Data set [1] can be described thus: Solubility in solvent (methanol). The format is physicochemical.
Data set [2] deals with antioxidant responsive element transcription activity (pGL3-GSTYaARE-Luciferase) in ARPE-19 cells. The experiment in a line: Antioxidant responsive element luciferase reporter assay in ARPE-19 cells. Format: cell-based. The conditions noted are these: for antioxidant effect in comparison with trehangelin A: ARE luciferase reporter, comparison with known substance trehangelin A; for antioxidant effect: conclusion from luciferase activity vs control, FIG. 1. The method, then:
The physiological functions of the compounds obtained above were evaluated. The evaluation of the physiological functions was carried out by using the tool described in Carnosic acid, a catechol-type electrophilic compound, protects neurons both in vitro and in vivo through activation of the Keap1/Nrf2 pathway via S-alkylation of targeted cysteines on Keap1. Takumi Satoh et al., Journal of Neurochemistry. Vol. 104, pp. 1116-1131, (2008).
Briefly, ARPE-19 cells were seeded in 24-well plates using a 10% FBS-DMEM/F12 medium (manufactured by GIBCO) so as to be 50% confluent. After 24 hours, (1) a mixed solution (vector solution) of 0.5 μg of pGL3-GSTYaARE-Luciferase vector, 0.5 μg of pSV-betaGAL vector, and 50 μL of Opti-MEM I (manufactured by GIBCO) per well and (2) a mixed solution (lipofectamine 2000) of 2 μL of lipofectamine 2000 (manufactured by Thermo Fisher) and 50 μL of Opti-MEM I (manufactured by GIBCO) per well were prepared and left at room temperature for 5 minutes. The vector solution and the lipofectamine 2000 solution were mixed and left at room temperature for 20 minutes. The resulting mixed solution was added to cultured cells (ARPE-19 cells) (100 μL per well) and cultured in a CO2 incubator for 6 hours. Subsequently, the culture medium was replaced with a new 10% FBS-DMEM/F12 medium (0.5 mL/well), followed by culturing for 18 hours. The culture medium was then replaced with a new 10% FBS-DMEM/F12 medium (0.3 mL/well) or a 10% FBS-DMEM/F12 medium (0.3 mL/well) containing […] of various trehangelin derivatives, followed by culturing for 24 hours. After the medium was removed, 150 μL of PassiveLysisBuffer (manufactured by Promega) was added to prepare a cell lysis solution.
100 μL of each cell lysis solution was placed on a 96-well plate, and 100 μL of β-GAL assay kit solution (manufactured by Promega) was added, followed by incubation at 37° C. for 3 hours. Then, β-GAL activity was confirmed by measuring the absorbance at 405 nm.
20 μL of each cell lysis solution was placed in a 96-well plate which differs from the above 96-well plate, and 100 μL of each luciferase assay kit solution (manufactured by Promega) was added. Then, luciferase activity was measured by measuring the luminescence. The obtained result on the luciferase activity was corrected by dividing them by the result on the β-GAL activity, and the antioxidant responsive element transcription activity was calculated.
For orientation: A reporter such as luciferase makes a cellular process visible.

SMILES strings stand for the structures.

Here are results for 4 compounds from patent US20250333432A1, “NOVEL COMPOUND AND USE OF SAME” (NAGASE & CO., LTD., priority 2020, published 2025).

Regarding `C/C=C(/C)C(=O)OC1C(O)C(CO)OC(OC2OC(CO)C(O)C(OC(=O)/C(C)=C\CC)C2O)C1O` (centres unmarked) [3-O-(2-methyl-2-butenoyl)-3′-O-(2-methyl-2-pentenoyl)trehalose], the Solubility in solvent entry in data set [1] is listed as “Poorly soluble in methanol”. Further, in data set [2], the “antioxidant effect in comparison with trehangelin A” value (from here on “antioxidant effect in comparison”) was “higher antioxidant effect than trehangelin A” and the antioxidant effect entry is recorded as “have an antioxidant effect”.

As for `C/C=C(/C)C(=O)OC1C(O)C(CO)OC(OC2OC(CO)C(O)C(OC(C)=O)C2O)C1O` (centres unmarked) [3-O-acetyl-3′-O-angeloyltrehalose], the Solubility in solvent result in data set [1] is “Poorly soluble in methanol”. Moreover, in data set [2], the antioxidant effect result is “have an antioxidant effect”.

Turning to `C/C=C\C(=O)OC1C(O)C(CO)OC(OC2OC(CO)C(O)C(OC(=O)/C(C)=C\C)C2O)C1O` (centres unmarked) [3-O-angeloyl-3′-O-isocrotonyltrehalose], the Solubility in solvent result in data set [1] is listed as “Poorly soluble in methanol”. In data set [2], the “antioxidant effect in comparison” value is “higher antioxidant effect than trehangelin A” and the antioxidant effect entry is listed as “have an antioxidant effect”.

`C/C=C(/C)C(=O)OC1C(O)C(CO)OC(OC2OC(CO)C(O)C(O)C2O)C1O` (centres unmarked) [3-O-angeloyltrehalose]: the Solubility in solvent entry in data set [1] is “Poorly soluble in methanol”. For the same compound, in data set [2], the “antioxidant effect in comparison” value is on record as “almost the same level of antioxidant effect as that of trehangelin A” and the antioxidant effect result was “have an antioxidant effect”.
